Results published in patent US7910560B2, “Method for increasing breast meat yield in poultry” (Arkion Life Sciences LLC, priority 2003, dated 2011).
Marks after values point to notes of the source that are not given here.

Key:
commercial broilers [1] = experiment: Natamycin in feeds formulated for portion-control processed broilers (Example 1); assay type: in vivo, Gallus domesticus
Excerpt: (§1) Mixed feed was stored in 50 lb capacity feed sacks. Feed was stored by treatment and treatment diets were further identified with color-codes. After each diet had been mixed, three composite samples (approximately 1 lb each) were collected. The amount of feed mixed for each treatment was as follows: [table] Normal, healthy day-old chicks were obtained from a commercial hatchery. Birds were transported from the hatchery location to Denver, Colo. via commercial air freight. Ground transportation was used to transport chicks from Denver to Wellington, Colo. The study started with 1200 commercial broilers of the species Gallus domesticus, the birds being placed into pens (30 male/30 female per pen). Treatments were assigned to pens using randomized block design. The research facility was divided into 10 blocks of 2 pens each. Birds were assigned randomly according to CQR SOPs. [table] Feed was provided ad libitum throughout the study via two hanging 17-inch diameter tube feeders per pen. A chick feeder tray was also placed in each pen for approximately the first 6 days. All birds were placed on their respective treatment diets upon receipt (approx. 0 days of age). All feed added and removed from pens was weighed and recorded. All experimental diet changes were conducted at the same time for both treatment groups.

commercial broilers [2] = experiment: Natamycin in feeds formulated for growing large broilers (Example 2); assay type: in vivo, Gallus domesticus
Excerpt: as §1, with “1400” for “1200”, “domesticus.” for “domesticus, the birds being placed into pens (30 male/30 female per pen).”, “SOPs.” for “SOPs. [table]”

[3] = cited from earlier work
commercial broilers [4] = experiment: Natamycin feed additive in diets manufactured using a gap extender (Example 3); assay type: in vivo, Gallus domesticus
Excerpt: as §1, with “The natamycin test article” for “Mixed feed”, “mixed into the treatment” for “stored in 50 lb capacity feed sacks. Feed was stored”, “the ConAgra Poultry Company. Once” for “treatment and treatment diets were further identified with color-codes. After”, “1140” for “1200”, “domesticus.” for “domesticus, the birds being placed into pens (30 male/30 female per pen).”

[5] = 49 days, 1 lbs/ton natamycin in feed ad libitum

C[C@@H]1C/C=C/C=C/C=C/C=C/[C@H](O[C@@H]2O[C@H](C)[C@@H](O)[C@H](N)[C@@H]2O)C[C@@H]2O[C@](O)(C[C@@H](O)C[C@H]3O[C@@H]3/C=C/C(=O)O1)C[C@H](O)[C@H]2C(=O)O [Natamycin, natamycin]
Breast Weight, Treatment Total (commercial broilers [1]; 43 days, 1 lbs/ton natamycin in feed ad libitum, 230 birds): 77.485 | % Breast, Treatment Average (commercial broilers [1]; 43 days, 1 lbs/ton natamycin in feed ad libitum, statistically extremely significant): 22.83** % | Breast Weight, Treatment Average (commercial broilers [1]; 43 days, 1 lbs/ton natamycin in feed ad libitum, statistically very significant): 0.337* | Breast weight and breast yield versus control (commercial broilers [1]; over a 43 day period, statistically significant): increased breast weight and breast yield | Breast Weight, Treatment Total (commercial broilers [2]; 61 days, 1 lbs/ton natamycin in feed ad libitum, 230 birds printed): 141.840 | % Breast, Treatment Average (commercial broilers [2]; 61 days, 1 lbs/ton natamycin in feed ad libitum, statistically extremely significant): 21.72** % | Breast Weight, Treatment Average (commercial broilers [2]; 61 days, 1 lbs/ton natamycin in feed ad libitum, statistics not calculated): 0.505 | Breast weight and breast yield versus control (commercial broilers [2]; over a 61 day period, breast yield increase statistically significant): increased breast weight and breast yield | Solubility in water [3]: 0.005-0.010 weight/weight percent | Breast Weight, Bird Average (commercial broilers [4]; [5]): 0.465 | Breast Weight, Pen Average (commercial broilers [4]; [5]): 8.315 | % Breast, Pen Average (commercial broilers [4]; 49 days, 1 lbs/ton natamycin in feed ad libitum, statistically significant): 23.31* % | Breast weight and breast yield versus control (commercial broilers [4]; over a 49 day period, breast yield increase statistically significant): increased breast weight and breast yield
